The text below walks through data of US20100063032A1, “SUBSTITUTED PYRIDO[2,3-D]PYRIMIDINE DERIVATIVES AS CANNABINOID-1 RECEPTOR MODULATORS” (priority 2007, published 2010).

Test [1] has as its target recombinant human CB1 receptor (Homo sapiens, UniProt P21554). Nature of the test: Cannabinoid Receptor-1 (CB1) Binding Assay ([3H]CP-55940 displacement). To be noted: recombinant human CB1 in CHO cell membranes, 0.6 nM [3H]CP-55940. As to the method: Binding affinity determination is based on recombinant human CB1 receptor expressed in Chinese Hamster Ovary (CHO) cells (Felder et al, Mol. Pharmacol. 48: 443-450, 1995). Total assay volume is 250 μl (240 μl CB1 receptor membrane solution plus 5 μl test compound solution plus 5 μl [3H]CP-55940 solution). Final concentration of [3H]CP-55940 is 0.6 nM. Binding buffer contains 50 mM Tris-HCl, pH 7.4, 2.5 mM EDTA, 5 mM MgCl28, 0.5 mg/mL fatty acid free bovine serum albumin and protease inhibitors (Cat#P8340, from Sigma). To initiate the binding reaction, 5 μl of radioligand solution is added, the mixture is incubated with gentle shaking on a shaker for 1.5 h at 30° C. The binding is terminated by using 96-well harvester and filtering through GF/C filter presoaked in 0.05% polyethylenimine. The bound radiolabel is quantitated using scintillation counter. Apparent binding affinities for various compounds are calculated from IC50 values (DeBlasi et al., Trends Pharmacol Sci 10: 227-229, 1989).

In test [2] the target is recombinant human CB1 receptor expressed in CHO cells (Homo sapiens, UniProt P21554). Kind of test: Cannabinoid Receptor-1 (CB1) Functional Activity Assay (intracellular cAMP, forskolin). Type of test: cell-based. To be noted: for EC50: cAMP level with forskolin; for functional mode at CB1 receptor: cAMP, Biological Example 3. As to the method: The functional activation of CB1 receptor is based on recombinant human CB1 receptor expressed in CHO cells (Felder et al, Mol. Pharmacol. 48: 443-450, 1995). To determine the agonist activity or inverse agonist activity of any test compound, 50 ul of CB1-CHO cell suspension are mixed with test compound and 70 ul assay buffer containing 0.34 mM 3-isobutyl-1-methylxanthine and 5.1 uM of forskolin in 96-well plates. The assay buffer is comprised of Earle's Balanced Salt Solution supplemented with 5 mM MgCl2, 1 mM glutamine, 10 mM HEPES, and 1 mg/mL bovine serum albumin. The mixture is incubated at room temperature for 30 minutes, and terminated by adding 30 ul/well of 0.5M HCl. The total intracellular cAMP level is quantitated using the New England Nuclear Flashplate and cAMP radioimmunoassay kit.
To determine the antagonist activity of test compound, the reaction mixture also contains 0.5 nM of the agonist CP55940 (or 50 nM of methanandamide), and the reversal of the CP55940 (or methanandamide) effect is quantitated with increasing concentration of the test compound. Intracellular cAMP is determined as described above. An IC50 value for the test compound is calculated from the titration curve.
Alternatively, a series of dose response curves for the agonist CP55940 (or methanandamide) is performed with increasing concentration of the test compound in each of the dose response curves, and a Schild analysis is carried to calculate the Kb value which is an estimation of test compound binding affinity.
On the technique in general: Changes in cAMP serve as a functional read-out for many G protein-coupled receptors.

What is called IC50 is the midpoint of a concentration-inhibition curve. For orientation: EC50 means the concentration giving half of the maximal effect.

The structures appear in SMILES notation.

recombinant human CB1 receptor expressed in CHO cells, sequence (P21554 whole entry): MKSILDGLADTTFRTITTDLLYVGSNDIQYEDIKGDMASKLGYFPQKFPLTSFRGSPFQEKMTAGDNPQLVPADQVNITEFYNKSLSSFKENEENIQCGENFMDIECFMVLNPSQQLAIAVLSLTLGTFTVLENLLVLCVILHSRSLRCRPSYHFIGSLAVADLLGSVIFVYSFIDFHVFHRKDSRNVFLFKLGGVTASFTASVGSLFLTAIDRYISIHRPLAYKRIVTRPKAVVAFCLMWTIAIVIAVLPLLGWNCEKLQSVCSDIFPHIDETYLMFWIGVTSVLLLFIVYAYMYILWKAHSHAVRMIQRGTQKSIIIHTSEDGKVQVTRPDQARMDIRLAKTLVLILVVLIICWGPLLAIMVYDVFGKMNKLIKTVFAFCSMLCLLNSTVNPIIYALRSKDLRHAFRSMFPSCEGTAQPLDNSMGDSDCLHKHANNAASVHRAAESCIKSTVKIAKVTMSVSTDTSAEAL
recombinant human CB1 receptor, sequence (P21554 whole entry): as above

On to `CC(C)(C)c1nc(NCC(F)(F)F)c2cc(-c3ccc(Br)cc3)c(-c3ccccc3Cl)nc2n1` [Example 58, 6-(4-Bromophenyl)-2-tert-butyl-7-(2-chlorophenyl)-N-(2,2,2-trifluoroethyl)pyrido[2,3-d]pyrimidin-4-amine], for which the IC50 in test [1] stood at 2 nM. Moreover, in test [2], the EC50 is < 15 nM and the “functional mode at CB1 receptor” value was “functional inverse agonists”.
The corresponding values for `CC(C)(C)c1nc(N)c2cc(-c3ccc(Cl)cc3)c(-c3ccc(Cl)cc3Cl)nc2n1` [Example 3, 2-Tert-butyl-6-(4-chlorophenyl)-7-(2,4-dichlorophenyl)pyrido[2,3-d]pyrimidin-4-amine] are 11 nM, < 15 nM and “functional inverse agonists”.
The like results for `CC(C)(C)c1nc(-c2ccc(F)cc2)c2cc(-c3ccc(Cl)cc3)c(-c3ccccc3Cl)nc2n1` [Example 72, 2-Tert-butyl-7-(2-chlorophenyl)-6-(4-chlorophenyl)-4-(4-fluorophenyl)pyrido[2,3-d]pyrimidine] were, in that order, 0.6 nM, < 15 nM and “functional inverse agonists”.
With `CC(C)(C)c1nc2nc(-c3ccccc3Cl)c(-c3ccc(Cl)cc3)cc2c(=O)[nH]1` [Example 11, 2-Tert-butyl-7-(2-chlorophenyl)-6-(4-chlorophenyl)pyrido[2,3-d]pyrimidin-4(3H)-one], the IC50 in test [1] was determined as 7 nM. Further, in test [2], the EC50 was < 15 nM and the “functional mode at CB1 receptor” value was “functional inverse agonists”.
The corresponding values for `CC(C)(C)c1nc2nc(-c3ccc(-c4cn[nH]c4)cc3Cl)c(-c3ccc(Cl)cc3)cc2c(=O)[nH]1` [Example 25, 2-Tert-butyl-6-(4-chlorophenyl)-7-[2-chloro-4-(1H-pyrazol-4-yl)phenyl]pyrido[2,3-d]pyrimidin-4(3H)-one] are 10 nM, < 15 nM and “functional inverse agonists”.
The like results for `CC(C)(C)Nc1nc(C(C)(C)C)nc2nc(-c3ccccc3Cl)c(-c3ccc(Cl)cc3)cc12` [Example 48, N,2-Di-tert-butyl-7-(2-chlorophenyl)-6-(4-chlorophenyl)pyrido[2,3-d]pyrimidin-4-amine] were, in that order, 3 nM, < 15 nM and “functional inverse agonists”.
Regarding `Cn1c(-c2ccc(Cl)cc2)nc2nc(-c3ccccc3Cl)c(-c3ccc(Cl)cc3)cc2c1=O` [Example 60, 7-(2-Chlorophenyl)-2,6-bis(4-chlorophenyl)-3-methylpyrido[2,3-d]pyrimidin-4(3H)-one], the IC50 in test [1] is 4 nM. In test [2], the EC50 is < 15 nM and the “functional mode at CB1 receptor” value is on record as “functional inverse agonists”.
In the case of `CC(C)(C)c1nc(C#N)c2cc(-c3ccc(C#N)cc3)c(-c3ccccc3Cl)nc2n1` [Example 69, 2-Tert-butyl-7-(2-chlorophenyl)-6-(4-cyanophenyl)pyrido[2,3-d]pyrimidine-4-carbonitrile], in test [1], the IC50 is 2 nM. Besides, in test [2], the EC50 is < 15 nM and the “functional mode at CB1 receptor” value is on record as “functional inverse agonists”.
